Experimental data published in US20240100065A1, “METHODS FOR TREATING RECEPTOR-INTERACTING PROTEIN KINASE 1-MEDIATED DISEASES” (Genzyme Corporation, priority 2022, published 2024).
Where two headings read alike, the source gives them in different places.

Experiment: Plasma pharmacokinetics after single and repeated oral doses
Format: in vivo, healthy adult participants (human)
Details: for Time to steady state (Tss), 50% median, point estimate / Time to steady state (Tss), 90% quantile, point estimate: overall; for AUC / AUC(0-t) / Cmax / Tmax / Vd/F: human, plasma, oral; for Vd/F: read-out: Vz/F, mean
Procedure: In Part 1a, plasma samples were collected before dosing and at 10 post-dose timepoints on Day 1 (30 minutes, 1 hour, followed by every hour until 6 hours, and then every 2 hours until 12 hours), and single samples on Day 2 (at 24 hours) and Day 3 (at 48 hours). In Part 1b, timepoints included at least pre-dose and at 10 post-dose timepoints, including plasma sampling at the same time of CSF sampling. In Part 2, on Day 1 and Day 14, plasma samples were collected at pre-dose and at 10 to 11 post-dose timepoints. In addition, plasma samples were collected on Days 2, 3, 5, 7, 11, 15, 16, and 17.
PK population included all participants exposed to Compound 1 with no major or critical deviations related to Compound 1 and for whom PK data were considered sufficient and interpretable. PK parameters were summarized by descriptive statistics for each dose level group. Distribution of Tmax values was represented by histogram plots for each dose level group. In Part 1a, dose proportionality was assessed using a linear model on Cmax, AUClast and AUC. In Part 2, all PK analyses were performed separately for each regimen (OD and BID). Steady state was assessed on Ctrough using a non-linear model. Accumulation was assessed using a linear model on log-transformed accumulation ratio. Dose proportionality was assessed using a power model on Cmax and AUCtau on Day 1 and Day 14, separately. Variance components of log-transformed Cmax and AUCtau were estimated using a linear model. In Part 1b, CSF concentration was described by dose level group and CSF to plasma unbound concentration ratios calculated were described in the same way. 4β-hydroxycholesterol on Day 14 versus Day 1 pre-dose concentration ratios were summarized using descriptive statistics by dose level group and point estimates with 90% confidence interval (90% CI) for the geometric mean of the log-transformed Day14/Day1 ratio was calculated in Part 2.

[1] = Part 2, cohorts at 10 and 20 mg QD
[2] = Part 2, cohorts at 15 and 20 mg BID
[3] = Part 2 Day 1, 10 mg QD, tau 24 hours
[4] = Part 2 Day 1, 15 mg BID, fasted
[5] = Part 2 Day 1, 20 mg BID, fasted
[6] = Part 2 Day 1, 20 mg BID, tau 12 hours
[7] = Part 2 Day 14 steady state, 10 mg QD
[8] = Part 2 Day 14 steady state, 15 mg BID
[9] = Part 2 Day 14 steady state, 20 mg BID
[10] = Part 2 Day 14 steady state, 20 mg QD
[11] = Part 2 Day 14 steady state, 20 mg QD, tau 24 hours

SMILES: CC(C)(C(=O)N1CCOc2c(C#N)cncc2C1)C(F)F [Compound 1, 4-(3,3-difluoro-2,2-dimethyl-propanoyl)-3,5-dihydro-2H-pyrido[3,4-f] [1,4]oxazepine-9-carbonitrile]
- Time to steady state (Tss), 50% median, point estimate [1]: 1.81 days
- Time to steady state (Tss), 90% quantile, point estimate [1]: 2.45 days
- Time to steady state (Tss), 50% median, point estimate [2]: 1.43 days
- Time to steady state (Tss), 90% quantile, point estimate [2]: 1.65 days
- Cmax, Gmean (Part 2 Day 1, 10 mg QD, fasted): (157) [20.7] ng/mL
- Tmax, median (Part 2 Day 1, 10 mg QD, fasted): 1.00 h
- AUCtau, Gmean [3]: (1080) h*ng/ml
- AUCtau, mean ± SD [3]: 1.11 ± 0.268 µg·h/mL
- Cmax, Gmean [4]: (211) [44.2] ng/mL
- Tmax, median [4]: 1.00 h
- AUCtau, Gmean (Part 2 Day 1, 15 mg BID, tau 12 hours): (1100) [33.1] h*ng/ml
- Cmax, Gmean [5]: (205) [20.3] ng/mL
- Cmax, mean ± SD [5]: 0.209 ± 0.0424 µg/mL
- Tmax, median [5]: 2.00 h
- AUCtau, Gmean [6]: (1350) h*ng/ml
- AUCtau, mean ± SD [6]: 1.37 ± 0.252 µg·h/mL
- Cmax, Gmean (Part 2 Day 1, 20 mg QD, fasted): (240) [20.2] ng/mL
- Tmax, median (Part 2 Day 1, 20 mg QD, fasted): 1.50 h
- AUCtau, Gmean (Part 2 Day 1, 20 mg QD, tau 24 hours): (1860) [22.5 h*ng/ml
- CLSS/F, Gmean (Part 2 Day 14, 10 mg QD): (7.08) [25.9] L/h
- CLSS/F, mean ± SD (Part 2 Day 14, 10 mg QD): 7.30 ± 1.89 L/h
- Ctrough, Gmean (Part 2 Day 14, 10 mg QD): (19.9) [57.0] ng/mL
- Ctrough, mean ± SD (Part 2 Day 14, 10 mg QD): 0.0228 ± 0.013 µg/mL
- T1/2z, Gmean (Part 2 Day 14, 10 mg QD): (8.87) [23.2] h
- T1/2z, mean ± SD (Part 2 Day 14, 10 mg QD): 9.07 ± 2.11 h
- CLSS/F, Gmean (Part 2 Day 14, 15 mg BID): (9.16) [30.0] L/h
- CLSS/F, mean ± SD (Part 2 Day 14, 15 mg BID): 9.54 ± 2.86 L/h
- Ctrough, Gmean (Part 2 Day 14, 15 mg BID): (79.3) [33.0] ng/mL
- Ctrough, mean ± SD (Part 2 Day 14, 15 mg BID): 0.0837 ± 0.0274 µg/mL
- T1/2z, Gmean (Part 2 Day 14, 15 mg BID): (7.21) [15.6] h
- T1/2z, mean ± SD (Part 2 Day 14, 15 mg BID): 7.29 ± 1.14 h
- CLSS/F, Gmean (Part 2 Day 14, 20 mg BID): (9.27) [24.9] L/h
- CLSS/F, mean ± SD (Part 2 Day 14, 20 mg BID): 9.53 ± 2.37 L/h
- Ctrough, Gmean (Part 2 Day 14, 20 mg BID): (99.3) [40.0] ng/mL
- Ctrough, mean ± SD (Part 2 Day 14, 20 mg BID): 0.107 ± 0.0427 µg/mL
- T1/2z, Gmean (Part 2 Day 14, 20 mg BID): (7.37) [23.0] h
- T1/2z, mean ± SD (Part 2 Day 14, 20 mg BID): 7.54 ± 1.74 h
- CLSS/F, Gmean (Part 2 Day 14, 20 mg QD): (9.40) [22.2] L/h
- CLSS/F, mean ± SD (Part 2 Day 14, 20 mg QD): 9.60 ± 2.14 L/h
- Ctrough, Gmean (Part 2 Day 14, 20 mg QD): (30.4) [49.0] ng/mL
- Ctrough, mean ± SD (Part 2 Day 14, 20 mg QD): 0.0342 ± 0.0166 µg/mL
- T1/2z, Gmean (Part 2 Day 14, 20 mg QD): (8.53) [19.0] h
- T1/2z, mean ± SD (Part 2 Day 14, 20 mg QD): 8.68 ± 1.65 h
- Cmax, Gmean [7]: (158) [31.9] ng/mL
- Tmax, median [7]: 1.00 h
- AUCtau, Gmean (Part 2 Day 14 steady state, 10 mg QD, tau 24 hours): (1410) [27.4] h*ng/mL
- Cmax, Gmean [8]: (268) [36.3] ng/mL
- Tmax, median [8]: 1.00 h
- AUCtau, Gmean (Part 2 Day 14 steady state, 15 mg BID, tau 12 hours): (1640) [32.5] h*ng/mL
- Cmax, Gmean [9]: (353) [19.9] ng/mL
- Tmax, median [9]: 1.00 h
- AUCtau, Gmean (Part 2 Day 14 steady state, 20 mg BID, tau 12 hours): (2160) [25.9] h*ng/mL
- Cmax, Gmean [10]: (250) [22.7] ng/mL
- Tmax, median [10]: 2.00 h
- AUCtau, Gmean [11]: (2130) [21.4] h*ng/mL
- AUCtau, mean ± SD [11]: 2.17 ± 0.465 µg·h/mL
- Accumulation ratio (AUC0-24h), Day 14/Day 1 (Pooled doses QD): ~1.22
- Within-subject variability for AUCtau (QD cohorts): 8.0%
- Within-subject variability for Cmax (QD cohorts): 15.8%
- Total variability for AUCtau (QD dosing regimen): 21.6%
- Total variability for Cmax (QD dosing regimen): 20.6%
- AUC (10 mg, Part 1a single 10 mg fasted, read-out: AUC, mean): 1.25 µg·h/mL
- AUC(0-t) (10 mg, Part 1a single 10 mg fasted, read-out: AUClast, mean): 1.2 µg·h/mL
- Cmax (10 mg, Part 1a single 10 mg fasted, read-out: Cmax, mean): 0.119 µg/mL
- AUC (10 mg, Part 1b single 10 mg fed, read-out: AUC, mean): 1.46 µg·h/mL
- AUC(0-t) (10 mg, Part 1b single 10 mg fed, read-out: AUClast, mean): 1.22 µg·h/mL
- Cmax (10 mg, Part 2 Day 1, 10 mg QD, fasted, read-out: Cmax, mean ± SD): 0.161 ± 0.0332 µg/mL
- AUC (10 mg, Part 2 Day 14 steady state, 10 mg QD, tau 24 hours, read-out: AUCtau, mean ± SD): 1.46 ± 0.399 µg·h/mL
- Cmax (10 mg, Part 2 Day 14 steady state, 10 mg QD, read-out: Cmax, mean ± SD): 0.164 ± 0.0523 µg/mL
- Cmax (15 mg, Part 2 Day 1, 15 mg BID, fasted, read-out: Cmax, mean ± SD): 0.229 ± 0.101 µg/mL
- AUC (15 mg, Part 2 Day 1, 15 mg BID, tau 12 hours, read-out: AUCtau, mean ± SD): 1.15 ± 0.38 µg·h/mL
- AUC (15 mg, Part 2 Day 14 steady state, 15 mg BID, tau 12 hours, read-out: AUCtau, mean ± SD): 1.71 µg·h/mL
- Cmax (15 mg, Part 2 Day 14 steady state, 15 mg BID, read-out: Cmax, mean ± SD): 0.284 µg/mL
- AUC(0-t) (20 mg, 20 mg BID, read-out: AUC0-24 h (corresponding to AUC0-12 h*2)): 15 µM·h
- Cmax (20 mg, 20 mg BID, read-out: Mean observed Cmax): 1.22 µM
- AUC(0-t) (20 mg, 20 mg QD, MAD study, read-out: Mean observed AUC0-24 at steady state): 7.35 µM·h
- Cmax (20 mg, Part 1a single 20 mg fasted, read-out: Cmax, mean): 0.245 µg/mL
- Cmax (20 mg, Part 2 Day 1, 20 mg QD, fasted, read-out: Cmax, mean ± SD): 0.245 ± 0.0495 µg/mL
- AUC (20 mg, Part 2 Day 1, 20 mg QD, tau 24 hours, read-out: AUCtau, mean ± SD): 1.91 ± 0.429 µg·h/mL
- AUC (20 mg, Part 2 Day 14 steady state, 20 mg BID, tau 12 hours, read-out: AUCtau, mean ± SD): 2.22 ± 0.574 µg·h/mL
- Cmax (20 mg, Part 2 Day 14 steady state, 20 mg BID, read-out: Cmax, mean ± SD): 0.359 ± 0.0716 µg/mL
- Cmax (20 mg, Part 2 Day 14 steady state, 20 mg QD, read-out: Cmax, mean ± SD): 0.255 ± 0.058 µg/mL
- AUC (30 mg, Part 1a single 30 mg fasted, read-out: AUC, mean): 2.57 µg·h/mL
- AUC(0-t) (30 mg, Part 1a single 30 mg fasted, read-out: AUClast, mean): 2.54 µg·h/mL
- Cmax (30 mg, Part 1a single 30 mg fasted, read-out: Cmax, mean): 0.439 µg/mL
- AUC (40 mg, Part 1a single 40 mg fasted, read-out: AUC, mean): 5.46 µg·h/mL
- AUC(0-t) (40 mg, Part 1a single 40 mg fasted, read-out: AUClast, mean): 5.39 µg·h/mL
- Cmax (40 mg, Part 1a single 40 mg fasted, read-out: Cmax, mean): 0.576 µg/mL
- AUC (40 mg, Part 1b single 40 mg fed, read-out: AUC, mean): 5.06 µg·h/mL
- AUC(0-t) (40 mg, Part 1b single 40 mg fed, read-out: AUClast, mean): 4.1 µg·h/mL
- Cmax (40 mg, Part 1b single 40 mg fed, read-out: Cmax, mean): 0.381 µg/mL
- Tmax (Part 1a, single 10 to 40 mg, fasted, read-out: Median tmax across doses): 1 to 1.5 h
- Tmax (Part 2, single or repeated administration, fasted, read-out: Median Tmax across dose levels): 1 to 2 h
- Vd/F (Part 1a single 40 mg fasted): 71.7 L
- Vd/F (Part 1b single 10 mg fed): 86 L
